The values that follow come from patent US11690824B2, “Antibacterial compounds” (THE GENERAL HOSPITAL CORPORATION, priority 2018, dated 2023).

In brackets after ≈: the same amount, converted by molar mass.

The test system of data set [1] is MRSA-infected C. elegans glp-4(bn2);sek-1(km4). The data set can be described thus: C. elegans-MRSA liquid killing assay. The format is in vivo. As for the experimental part:
C. elegans-MRSA liquid killing assay. The C. elegans-MRSA infection assay was conducted as described in a previous study. Briefly, a black, clear-bottom 384-well plate (Corning no. 3712) was filled with 20 μL M9 buffer including the desired concentrations of nTZDpa, 1% DMSO (negative control), or 10 μg/mL vancomycin (positive control). After adding 15 young adult C. elegans glp-4(bn2);sek-1(km4) animals to the wells using a COPAS large particle sorter (Union Biometrica, Mass., USA), 35 μL of MRSA MW2 suspension was added (OD600 0.08). The assay plate was sealed with a gas-permeable membrane (Breathe-Easy, Diversified Biotech, Dedham, Mass., USA), and then incubated in a humidified chamber at 25° C. for 5 days. After washing the plate 8-times with M9 buffer using a microplate washer (BioTek EL×405, BioTek, Vt., USA), worms were stained with 0.7 μM SYTOX Orange. To evaluate worm survivability, the worms were imaged using an Image Xpress Micro automated microscope (Molecular Devices), capturing both transmitted light and TRITC (535 nm excitation, 610 nm emission) fluorescent images with a 2× objective. Only dead worms stain with SYTOX Orange. The assay was conducted in biological triplicate.

In data set [2] the test system is MRSA MW2. The data set can be described thus: Serial passage resistance development. It counts as cell-based, S. aureus. To be noted: 25 days, sub-MIC concentrations. On the procedure: Serial passage resistance development. […] Briefly, an extended range of concentrations of nTZDpa was generated by two-fold serial dilution with cation-adjusted Mueller Hinton (CaMH) broth (Difco, Detroit, USA) from three different starting concentrations (20, 24, and 32 μg/mL) covering 0.1875 to 32.0 μg/mL, which extended over three rows of the 96-well plate. Three sets of the extended gradient of nTZDpa were created in the 96-well plate to provide triplicates of the experiment. […] MRSA MW2 overnight cultures were adjusted to 1×10^6 CFU/mL in CaMH broth, and 50 μL of the diluted cultures were dispensed into the 96-well plates containing 50 μL of the extended gradient of antibiotics. After incubation for 24 h at 35° C., bacterial growth was determined by measuring optical density at 600 nm using a SpectraMax plate reader (Molecular Devices, Sunnyvale, Calif.), and growth was defined as an optical density reading of ≥0.1. Bacterial cells growing at the highest concentration of the antimicrobial (just below the MIC) were diluted 1:1000 in CaMH broth and then used to inoculate the next day's serial-passage plate. The remaining bacterial cells were stored at −80° C. in CaMH broth with 16% glycerol. This process was repeated for 25 days.

Data set [3] relates to A. baumannii ATCC 17978. The data set can be described thus: MIC assay. The format is cell-based, Acinetobacter baumannii. The following applies: Acinetobacter baumannii, ATCC17978; A. baumannii ATCC 17978; read-out: Minimum inhibitory concentration. The source says: (§1) Bacterial strains, growth conditions, and persister isolation. Methicillin-resistant S. aureus strains, MW2 BAA-1707, ATCC 33591, and JE2, methicillin-susceptible S. aureus strains, NCTC 8325, Newman, and ATCC 29213, vancomycin-resistant S. aureus strain, VRS1, Enterococcus faecium E007, vancomycin-resistant E. faecium strains, C68,^7 WB312, and WC196, Klebsiella pneumoniae WGLW2 (BEI Resources, Manassas, Va., USA), Acinetobacter baumannii ATCC 17978, Pseudomonas aeruginosa PA14, and Enterobacter aerogenes ATCC 13048 were used to test antimicrobial activity (Table 1). S. aureus strains were grown in tryptic soy broth (TSB) (BD, Franklin Lakes, N.J., USA), and E. faecium was grown in brain-heart infusion (BHI) broth (BD, Franklin Lakes, N.J., USA) at 37° C. K. pneumoniae, A. baumannii, P. aeruginosa, and E. aerogenes were grown in Luria Bertani (LB) broth (BD, Franklin Lakes, N.J., USA) at 37° C.
(§2) Minimal inhibitory concentration (MIC) assay. The MICS of antibiotics were determined by the standard micro-dilution method recommended by the Clinical and Laboratory Standards Institute. MIC assays were conducted in biological triplicate.

The test system of data set [4] is HKC-8. The experiment in a line: Cytotoxicity (WST-1). The following applies: 32 μg/ml. It counts as cell-based. As for the experimental part:
(§3) Cytotoxicity. […] HepG2 and HKC-8 cells were grown in Dulbecco's modified Eagle F-12 media mixed 1:1 with Ham's F-12 (DMEM/F-12, Life Technologies, Carlsbad, Calif., USA) supplemented with 10% FBS and 4 mM L-glutamine at 37° C. in 5% CO2. For cytotoxicity assays, HepG2 or HKC-8 was cultured in 96-well plates in 100 μL/well of the proper media to reach 70-80% confluence. The cells were then treated with a range of concentrations of nTZDpa or its analogs for 72 h. 10 μL of WST-1 (Roche, Mannheim, Germany) was added per well for the last 4 h of the 72 h period. WST-1 reduction was measured at absorbance 450 nm. The percent […] relative to that of the no-treatment control was calculated. The assay was carried out in biological triplicate.

The subject of data set [5] is HepG2. The experiment in a line: Cytotoxicity (WST-1). The following applies: 32 μg/ml. It counts as cell-based. On the procedure:
as §3

In data set [6] the test system is S. aureus NCTC 8325. The experiment in a line: MIC assay. The following applies: Staphylococcus aureus, NCTC8325; S. aureus NCTC 8325; read-out: Minimum inhibitory concentration. It counts as cell-based.
Excerpt: as §1, §2

The subject of data set [7] is S. aureus VRS1. The experiment in a line: MIC assay. The format is cell-based. The following applies: Staphylococcus aureus; S. aureus VRS1; read-out: Minimum inhibitory concentration.
Excerpt: as §1, §2

The subject of data set [8] is E. aerogenes ATCC 13048. The data set can be described thus: MIC assay. It counts as cell-based, Enterobacter aerogenes. The following applies: Klebsiella aerogenes, ATCC13048; E. aerogenes ATCC 13048; read-out: Minimum inhibitory concentration.
Excerpt: as §1, §2

Data set [9] concerns Gram-negative bacteria. The data set can be described thus: MIC against Gram-negative bacteria. The format is cell-based.
Excerpt: as §1, §2

The subject of data set [10] is E. faecium WC196. The experiment in a line: MIC assay. The format is cell-based, Enterococcus faecium. To be noted: Enterococcus faecium; E. faecium WC196; read-out: Minimum inhibitory concentration.
Excerpt: as §1, §2

Data set [11] concerns E. faecium WB312. The experiment in a line: MIC assay. It counts as cell-based, Enterococcus faecium. To be noted: Enterococcus faecium; E. faecium WB312; read-out: Minimum inhibitory concentration.
Excerpt: as §1, §2

For data set [12], the system named is E. faecium C68. The data set can be described thus: MIC assay. It counts as cell-based, Enterococcus faecium. The following applies: Enterococcus faecium; E. faecium C68; read-out: Minimum inhibitory concentration.
Excerpt: as §1, §2

The test system of data set [13] is E.faecium E007. The experiment in a line: MIC assay. The format is cell-based, Enterococcus faecium. The following applies: Enterococcus faecium; E.faecium E007; read-out: Minimum inhibitory concentration.
Excerpt: as §1, §2

For data set [14], the system named is vancomycin-resistant Enterococcus faecium strains. The data set can be described thus: MIC against vancomycin-resistant strains. It counts as cell-based.
Excerpt: as §1, §2

Regarding `O=C(O)c1c(Sc2ccccc2)c2cc(Cl)ccc2n1Cc1ccc(Cl)cc1` [nTZDpa], in data set [1] (2 μg/ml to 16 μg/ml), the “C. elegans rescued from MRSA-mediated lethality” value is ~90%. For the same molecule, the EC50 in data set [1] (Caenorhabditis elegans, 120 h, read-out: EC50 (median effective concentration), C. elegans survival) was ~0.6 µg/mL (≈ 1.4 µM). For the same molecule, the “EC50 relative to EC50 of vancomycin” value in data set [1] (fold higher) came out at 2 fold. Moreover, in data set [2], the “increase of MIC over wild-type after serial passage” value is listed as “no increase in the nTZDpa MIC was observed”. Further, the MIC in data set [3] is > 64 µg/mL; in [6] it was 4 µg/mL (≈ 9.34 µM); in [7], 4 µg/mL (≈ 9.34 µM); in [8], > 64 µg/mL; in [10] it was 4 µg/mL (≈ 9.34 µM); in data set [11] it was 4 µg/mL (≈ 9.34 µM). Moreover, the MIC in data set [12], in [13] and in data set [14] was 4 µg/mL (≈ 9.34 µM) in each case. In data set [4], the “cell death of HKC-8” value was ~16%. In data set [5], the “cell death of HepG2” value is given as ~30%. The “antimicrobial activity against Gram-negative bacteria” value in data set [9] is “not effective against Gram-negative bacteria”.
